US9889181B2, “Bacteriophage lysin and antibiotic combinations against gram positive bacteria” (priority 2012, dated 2018)
≈ marks a conversion by molar mass, not a printed value. Like-named read-outs stand apart in the source and are kept apart here.

Tests used:
[1] = test system: 20 different MSSA and 42 MRSA strains; test: Time-kill assay, single agents at 1×MIC; assay type: cell-based, Staphylococcus aureus; conditions: 1×MIC; for comparative kill: up to 6 hours
Description: In order to more fully evaluate PlySs2's applicability to clinical Staphylococcal infections, time kill studies were undertaken against numerous Staphylococcus aureus strains, including methicillin resistant and methicillin sensitive strains. Time kill assays were performed according to CLSI methodology (CLSI document M07-A9 column 32 No. 2) on 42 methicillin resistant S. aureus (MRSA) strains and 20 methicillin sensitive S. aureus (MSSA) strains. Cultures of each strain (5.5×10^5-1×10^6 starting inoculum) were treated with PlySs2 lysin and with antibiotics daptomycin, oxacillin or vancomycin for comparison for 6 hours with aeration. MRSA and MSSA strains were treated with PlySs2, daptomycin and vancomycin. MSSA strains were also treated with oxacillin. 1×MIC concentrations of the different antibiotics were utilized, based on published and established antibiotic MIC values. PlySs2 lysin treatment was at approximately 1×MIC as previously determined (see TABLE 2 above). Culture aliquots were removed hourly up to 6 hours (time points taken at 15 and 30 min, 1 hr, 2 hr, 3 hr, 4 hr, 5 hr, and 6 hr) and added to a PBS/charcoal solution (to inactivate each drug), which was then serially diluted and plated for bacterial viability. The resulting log CFU/mL was plotted for each culture. Growth controls were included for each strain and represent bacterial growth in the absence of any antibacterial agent. Exemplary log kill curves for selected MRSA strains are depicted in FIG. 1. Exemplary log kill curves for selected MSSA strains are depicted in FIG. 2.
Rapid-kill kinetics are desirable in the clinical setting to treat patients with fulminant bacterial infections.

[2] = test system: MRSA Staphylococcus aureus strain (MW2); test: microbe, parasite or virus in culture; assay type: cell-based
S. aureus cell envelope = test: BODIPY-labeled antibiotic cell envelope binding time course; assay type: cell-based
Description: As a complement to the synergy studies, daptomycin and vancomycin cell envelope-binding was examined using BODIPY-fluorescein-labeled antibiotics in the presence and absence of sub-MIC levels of CF-301.

[3] = test system: MRSA strain MW2 (also strains 738, 832); assay type: in vivo, BALB/c mice; conditions: FIG. 27E; 10^9 CFU, dosing at 2 hours; vancomycin 110 mg/kg twice daily, PlySs2 5.25 mg/kg
MRSA strains = test: Time kill assay, PlySs2 and antibiotic alone or in combination; assay type: cell-based, Staphylococcus aureus; conditions: ½ MIC of PlySs2 or ¼ MIC of vancomycin alone
MRSA S. aureus strains = test: Dual agent MIC assay (PlySs2 and daptomycin); assay type: cell-based, Staphylococcus aureus
[4] = test system: MRSA strain MW2 and MSSA strain ATCC 29213; assay type: cell-based, Staphylococcus aureus
MRSA strain 269 (MW2) = test: Combination MIC in 15% surfactant (Survanta); assay type: cell-based, Staphylococcus aureus

SMILES | comparative kill [1] | fold increase in vancomycin MIC ([2]; 25-day, vancomycin-only) [fold] | vancomycin MIC, ending values ([2]; 25 day serial passage, PlySs2 (8 ug/ml) plus vancomycin (three cultures)) [µg/mL] | MIC ([2]; Staphylococcus aureus, MRSA, read-out: vancomycin MIC, starting value, MW2) [µg/mL] | time to cell wall-labeling with BODIPY-labeled vancomycin (S. aureus cell envelope; in the presence of CF-301 (⅛^th MIC)) [min] | time to cell wall-labeling with BODIPY-labeled vancomycin (S. aureus cell envelope; without CF-301) [min] | 24 hour survival rate [3] [%] | 72 hour survival rate [3] [%] | effect alone at sub-MIC doses up to 6 hours (MRSA strains) | time to antibiotic penetration (BODIPY-labeled daptomycin binding) (S. aureus cell envelope; in the presence of CF-301 at 1/32nd MIC) [min] | time to antibiotic penetration (BODIPY-labeled daptomycin binding) (S. aureus cell envelope; without CF-301) [min] | time to reach bactericidal levels (≧3-log10 reduction in CFUs) [1] [hours] | MIC alone (MRSA S. aureus strains; MRSA strain 269 (MW2), single-agent) [µg/mL] | daptomycin MIC with 0.25×MIC PlySs2 (MRSA S. aureus strains; dual agent MIC assay, strain not named) [µg/mL] | fold inhibition of MIC in the presence of Survanta ([4]; surfactant concentration of 1.25%) | fold inhibition of MIC in the presence of Survanta ([4]; surfactant up to 15%, vs MIC without surfactant) | effective combination concentration as fraction of the MIC (MRSA strain 269 (MW2)) | effective concentration in PlySs2 plus daptomycin combination MIC (MRSA strain 269 (MW2); 24 hours) [µg/mL]
Cc1onc(-c2ccccc2)c1C(=O)N[C@@H]1C(=O)N2[C@@H]1SC(C)(C)[C@@H]2C(=O)O [Oxacillin, oxacillin, reference compound] | least effective |  |  |  |  |  |  |  |  |  |  |  |  |  |  |  |  | 
CN[C@H](CC(C)C)C(=O)N[C@H]1C(=O)N[C@@H](CC(N)=O)C(=O)N[C@H]2C(=O)N[C@H]3C(=O)N[C@H](C(=O)N[C@H](C(=O)O)c4cc(O)cc(O)c4-c4cc3ccc4O)[C@H](O)c3ccc(c(Cl)c3)Oc3cc2cc(c3O[C@@H]2O[C@H](CO)[C@@H](O)[C@H](O)[C@H]2O[C@H]2C[C@](C)(N)[C@H](O)[C@H](C)O2)Oc2ccc(cc2Cl)[C@H]1O [Vancomycin, vancomycin] |  | 16 | 2 | 1 (≈ 0.69 µM) | ≤ 5 | 30 | 20 | 3 | ineffective or poorly effective |  |  |  |  |  |  |  |  | 
CCCCCCCCCC(=O)N[C@@H](Cc1c[nH]c2ccccc12)C(=O)N[C@H](CC(N)=O)C(=O)N[C@@H](CC(=O)O)C(=O)N[C@@H]1C(=O)NCC(=O)N[C@@H](CCCN)C(=O)N[C@@H](CC(=O)O)C(=O)N[C@H](C)C(=O)N[C@@H](CC(=O)O)C(=O)NCC(=O)N[C@H](CO)C(=O)N[C@@H]([C@H](C)CC(=O)O)C(=O)N[C@@H](CC(=O)c2ccccc2N)C(=O)O[C@@H]1C [Daptomycin, reference compound] | most effective against most strains |  |  |  |  |  |  |  |  | 15 | 180 | 6 | 1 (≈ 0.617 µM) | 0.0075 | more than 20 fold | up to 256 fold | 1/1024 | 0.25
